From ChEMBL document CHEMBL1146823 (Bioorg Med Chem Lett, 2004)

target: T1, Carbonic anhydrase 4 (Bos taurus, UniProt Q95323)
T1 sequence (Q95323 whole entry): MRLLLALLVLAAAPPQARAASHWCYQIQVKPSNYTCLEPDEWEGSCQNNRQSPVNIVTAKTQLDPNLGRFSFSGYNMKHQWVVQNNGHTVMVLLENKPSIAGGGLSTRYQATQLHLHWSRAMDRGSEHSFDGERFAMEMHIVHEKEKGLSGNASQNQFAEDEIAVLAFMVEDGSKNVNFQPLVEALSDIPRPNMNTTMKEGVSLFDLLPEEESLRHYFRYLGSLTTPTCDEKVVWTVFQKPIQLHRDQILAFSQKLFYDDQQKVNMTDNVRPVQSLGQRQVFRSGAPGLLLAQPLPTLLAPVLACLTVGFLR
Description: Inhibitory activity of compound against bovine carbonic anhydrase IV

IC50 [nM] | SMILES
65 | NS(=O)(=O)c1ccc(S(=O)(=O)Nc2cccc3c(Cl)c[nH]c23)cc1
290 | Cc1ccc(-c2cc(C(F)(F)F)nn2-c2ccc(S(N)(=O)=O)cc2)cc1 [CELECOXIB]
380 | NS(=O)(=O)c1cc(Cl)c(Cl)c(S(N)(=O)=O)c1 [DICHLORPHENAMIDE]
620 | CCN1CCCC1CNC(=O)c1cc(S(N)(=O)=O)ccc1OC (configuration not stated) [SULPIRIDE]
54 | CC1(C)O[C@@H]2[C@@H](CO[C@@]3(COS(N)(=O)=O)OC(C)(C)O[C@@H]23)O1 [TOPIRAMATE]

target: Carbonic anhydrase 1 (Homo sapiens, UniProt P00915)
Sequence (P00915 whole entry): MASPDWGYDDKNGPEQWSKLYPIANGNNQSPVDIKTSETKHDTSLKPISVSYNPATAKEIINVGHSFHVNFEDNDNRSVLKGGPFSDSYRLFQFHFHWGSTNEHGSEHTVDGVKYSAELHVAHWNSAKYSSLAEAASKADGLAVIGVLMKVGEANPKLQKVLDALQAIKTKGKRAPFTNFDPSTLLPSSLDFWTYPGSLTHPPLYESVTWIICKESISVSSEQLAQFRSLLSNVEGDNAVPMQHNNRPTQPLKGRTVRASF
Description: Inhibitory activity of compound against human carbonic anhydrase I

SMILES | IC50 [nM]
C[C@]12CC[C@@H]3c4ccc(OS(N)(=O)=O)cc4CCC3[C@@H]1CCC2=O (single isomer, unassigned) [EMATE] | 37
